The record followed here is article PMC6437697 (Journal of Medicinal Chemistry, 2019).

Test in all cases: KINOMEscan
Type in all cases: binding
Common to all, as to conditions: read-out: % control activity remaining

Experiment [1] concerns the target T1, ACVR2B (Homo sapiens, UniProt Q13705).
T1 construct: purchased Eurofins DiscoverX KINOMEscan

Experiment [2] has as its target T2, FLT3(D835Y) (Homo sapiens, UniProt P36888, D835Y).
T2 construct: purchased Eurofins DiscoverX KINOMEscan
T2 sequence (P36888 27-993 D835Y): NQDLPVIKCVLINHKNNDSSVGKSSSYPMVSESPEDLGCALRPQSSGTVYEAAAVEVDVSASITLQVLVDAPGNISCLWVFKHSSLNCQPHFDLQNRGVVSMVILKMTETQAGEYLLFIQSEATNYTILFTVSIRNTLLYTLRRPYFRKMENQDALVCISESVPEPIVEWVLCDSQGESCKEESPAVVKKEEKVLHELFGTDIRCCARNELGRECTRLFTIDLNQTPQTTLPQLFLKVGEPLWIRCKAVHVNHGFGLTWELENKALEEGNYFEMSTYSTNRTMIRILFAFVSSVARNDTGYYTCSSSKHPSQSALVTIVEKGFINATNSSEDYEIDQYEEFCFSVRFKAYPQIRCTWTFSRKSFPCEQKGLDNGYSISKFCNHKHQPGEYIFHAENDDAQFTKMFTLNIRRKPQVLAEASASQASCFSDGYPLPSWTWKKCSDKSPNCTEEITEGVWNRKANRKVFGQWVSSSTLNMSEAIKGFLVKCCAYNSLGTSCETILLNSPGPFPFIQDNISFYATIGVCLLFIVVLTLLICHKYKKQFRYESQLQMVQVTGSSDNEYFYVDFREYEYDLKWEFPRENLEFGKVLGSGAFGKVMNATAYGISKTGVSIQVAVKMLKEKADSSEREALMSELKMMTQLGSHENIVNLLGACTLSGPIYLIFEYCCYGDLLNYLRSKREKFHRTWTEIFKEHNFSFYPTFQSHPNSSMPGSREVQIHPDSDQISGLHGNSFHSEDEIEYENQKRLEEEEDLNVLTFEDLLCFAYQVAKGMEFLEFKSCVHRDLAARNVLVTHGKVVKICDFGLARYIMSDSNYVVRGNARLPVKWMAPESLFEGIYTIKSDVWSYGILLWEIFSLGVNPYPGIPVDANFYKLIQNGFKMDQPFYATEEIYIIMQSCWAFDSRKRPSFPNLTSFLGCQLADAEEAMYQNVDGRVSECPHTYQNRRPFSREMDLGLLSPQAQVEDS

Experiment [3] addresses T3, EGFR(L747-E749del, A750P) (Homo sapiens, UniProt P00533, A750P/DEL747-749).
T3 construct: purchased Eurofins DiscoverX KINOMEscan

In experiment [4] the target is T4, TGFBR1 (Homo sapiens, UniProt P36897).
T4 construct: purchased Eurofins DiscoverX KINOMEscan
T4 sequence (P36897 34-503): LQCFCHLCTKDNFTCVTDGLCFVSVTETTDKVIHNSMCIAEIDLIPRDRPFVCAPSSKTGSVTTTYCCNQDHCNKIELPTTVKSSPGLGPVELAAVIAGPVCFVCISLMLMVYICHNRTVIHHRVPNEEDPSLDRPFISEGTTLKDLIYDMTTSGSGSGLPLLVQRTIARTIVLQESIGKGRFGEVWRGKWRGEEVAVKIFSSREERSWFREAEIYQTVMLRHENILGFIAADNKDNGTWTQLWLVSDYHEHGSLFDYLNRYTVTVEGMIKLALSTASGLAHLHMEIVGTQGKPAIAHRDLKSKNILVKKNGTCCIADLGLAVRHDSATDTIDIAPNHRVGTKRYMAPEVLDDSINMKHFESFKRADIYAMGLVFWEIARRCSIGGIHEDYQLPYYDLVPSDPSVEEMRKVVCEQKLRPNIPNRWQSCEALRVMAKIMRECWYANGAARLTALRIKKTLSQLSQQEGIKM

For experiment [5], the target named is T5, JNK2 (Homo sapiens, UniProt P45984).
T5 construct: purchased Eurofins DiscoverX KINOMEscan
T5 sequence (P45984 whole entry): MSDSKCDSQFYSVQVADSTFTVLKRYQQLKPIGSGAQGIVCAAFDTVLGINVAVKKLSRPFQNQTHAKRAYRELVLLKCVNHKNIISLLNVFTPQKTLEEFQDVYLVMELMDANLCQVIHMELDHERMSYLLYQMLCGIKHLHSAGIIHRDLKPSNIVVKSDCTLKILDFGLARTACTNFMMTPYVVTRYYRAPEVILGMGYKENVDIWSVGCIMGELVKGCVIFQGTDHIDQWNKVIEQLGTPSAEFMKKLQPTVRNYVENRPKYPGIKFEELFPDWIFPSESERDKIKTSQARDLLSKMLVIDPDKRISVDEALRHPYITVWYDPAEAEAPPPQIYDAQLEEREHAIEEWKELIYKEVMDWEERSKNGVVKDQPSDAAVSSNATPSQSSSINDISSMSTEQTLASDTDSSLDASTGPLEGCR

In experiment [6] the target is T6, MUSK (Homo sapiens, UniProt O15146).
T6 construct: purchased Eurofins DiscoverX KINOMEscan
T6 sequence (O15146 24-869): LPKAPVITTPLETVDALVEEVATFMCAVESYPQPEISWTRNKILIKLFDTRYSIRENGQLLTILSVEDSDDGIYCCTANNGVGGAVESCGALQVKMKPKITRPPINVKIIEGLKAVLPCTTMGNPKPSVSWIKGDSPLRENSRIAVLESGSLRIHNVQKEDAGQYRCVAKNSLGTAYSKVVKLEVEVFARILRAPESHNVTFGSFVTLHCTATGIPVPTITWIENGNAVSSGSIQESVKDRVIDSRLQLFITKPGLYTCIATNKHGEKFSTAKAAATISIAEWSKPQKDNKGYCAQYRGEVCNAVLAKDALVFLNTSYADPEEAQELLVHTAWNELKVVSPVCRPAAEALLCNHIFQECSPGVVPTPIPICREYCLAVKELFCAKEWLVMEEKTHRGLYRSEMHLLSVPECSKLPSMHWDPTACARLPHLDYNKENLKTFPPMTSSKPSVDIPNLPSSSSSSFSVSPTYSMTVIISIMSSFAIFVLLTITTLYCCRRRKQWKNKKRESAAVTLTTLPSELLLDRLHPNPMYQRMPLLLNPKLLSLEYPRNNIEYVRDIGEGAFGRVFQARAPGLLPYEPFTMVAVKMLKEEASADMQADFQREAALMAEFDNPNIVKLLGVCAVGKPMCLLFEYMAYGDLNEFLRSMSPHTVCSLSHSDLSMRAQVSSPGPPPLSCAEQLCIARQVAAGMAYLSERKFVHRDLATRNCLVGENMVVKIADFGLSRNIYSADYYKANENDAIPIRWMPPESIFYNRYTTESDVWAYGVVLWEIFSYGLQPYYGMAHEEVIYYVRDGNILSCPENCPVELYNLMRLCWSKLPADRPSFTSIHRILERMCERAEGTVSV

The target in experiment [7] is T7, SLK (Homo sapiens, UniProt Q9H2G2).
T7 construct: purchased Eurofins DiscoverX KINOMEscan
T7 sequence (Q9H2G2 whole entry, looked up): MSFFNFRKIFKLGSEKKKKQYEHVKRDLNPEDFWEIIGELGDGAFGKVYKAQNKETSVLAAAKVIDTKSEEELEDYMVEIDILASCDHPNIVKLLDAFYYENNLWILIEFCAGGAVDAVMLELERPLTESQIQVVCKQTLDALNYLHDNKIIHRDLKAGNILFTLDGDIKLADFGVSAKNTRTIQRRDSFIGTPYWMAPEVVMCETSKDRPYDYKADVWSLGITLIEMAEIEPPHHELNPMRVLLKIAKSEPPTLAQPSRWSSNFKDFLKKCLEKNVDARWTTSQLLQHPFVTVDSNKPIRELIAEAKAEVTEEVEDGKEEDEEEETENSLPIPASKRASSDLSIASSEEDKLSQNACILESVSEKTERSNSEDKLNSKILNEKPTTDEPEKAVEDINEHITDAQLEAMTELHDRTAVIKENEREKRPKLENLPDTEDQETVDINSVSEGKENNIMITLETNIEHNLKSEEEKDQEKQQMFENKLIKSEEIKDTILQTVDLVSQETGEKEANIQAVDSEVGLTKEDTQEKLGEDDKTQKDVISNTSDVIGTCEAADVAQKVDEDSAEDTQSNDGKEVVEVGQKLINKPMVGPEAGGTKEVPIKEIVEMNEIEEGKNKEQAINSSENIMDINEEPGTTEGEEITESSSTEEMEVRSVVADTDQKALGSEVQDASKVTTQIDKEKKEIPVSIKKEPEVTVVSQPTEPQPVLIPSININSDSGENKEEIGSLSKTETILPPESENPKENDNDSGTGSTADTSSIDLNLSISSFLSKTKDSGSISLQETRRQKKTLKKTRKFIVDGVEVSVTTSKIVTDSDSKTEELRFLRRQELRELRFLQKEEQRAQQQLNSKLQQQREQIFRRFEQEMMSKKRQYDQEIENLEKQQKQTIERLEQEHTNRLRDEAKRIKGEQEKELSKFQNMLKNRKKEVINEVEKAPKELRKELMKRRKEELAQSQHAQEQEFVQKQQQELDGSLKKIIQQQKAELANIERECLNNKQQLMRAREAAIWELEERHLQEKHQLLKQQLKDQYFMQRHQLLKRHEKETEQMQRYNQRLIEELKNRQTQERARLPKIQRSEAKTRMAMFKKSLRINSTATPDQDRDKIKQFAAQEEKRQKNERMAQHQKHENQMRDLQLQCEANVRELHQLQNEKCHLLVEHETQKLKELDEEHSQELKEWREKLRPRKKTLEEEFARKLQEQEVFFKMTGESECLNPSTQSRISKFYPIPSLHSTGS

Experiment [8] concerns the target T8, LIMK1 (Homo sapiens, UniProt P53667).
T8 construct: purchased Eurofins DiscoverX KINOMEscan

Experiment [9] concerns the target T9, FGFR1 (Homo sapiens, UniProt P11362).
T9 construct: purchased Eurofins DiscoverX KINOMEscan

Experiment [10] addresses T10, CAMK2B (Homo sapiens, UniProt Q13554).
T10 construct: purchased Eurofins DiscoverX KINOMEscan

T8 sequence (P53667 whole entry): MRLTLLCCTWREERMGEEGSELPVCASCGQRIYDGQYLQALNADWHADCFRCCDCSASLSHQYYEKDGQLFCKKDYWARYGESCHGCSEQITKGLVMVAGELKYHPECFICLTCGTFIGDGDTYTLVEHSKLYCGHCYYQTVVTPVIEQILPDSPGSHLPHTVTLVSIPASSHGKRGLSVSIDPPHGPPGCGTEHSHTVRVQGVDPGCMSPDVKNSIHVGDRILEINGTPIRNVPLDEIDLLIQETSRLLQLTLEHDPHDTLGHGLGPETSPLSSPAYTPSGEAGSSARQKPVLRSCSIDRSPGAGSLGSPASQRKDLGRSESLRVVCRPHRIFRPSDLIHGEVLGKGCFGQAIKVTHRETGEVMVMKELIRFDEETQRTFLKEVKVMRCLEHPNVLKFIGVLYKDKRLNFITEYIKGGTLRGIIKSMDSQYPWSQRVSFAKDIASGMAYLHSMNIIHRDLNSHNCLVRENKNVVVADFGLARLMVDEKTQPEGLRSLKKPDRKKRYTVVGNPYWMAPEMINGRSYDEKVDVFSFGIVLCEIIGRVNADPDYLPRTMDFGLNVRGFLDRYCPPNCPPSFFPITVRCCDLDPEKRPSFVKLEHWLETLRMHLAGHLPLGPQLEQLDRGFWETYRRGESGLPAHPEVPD
T9 sequence (P11362 22-822): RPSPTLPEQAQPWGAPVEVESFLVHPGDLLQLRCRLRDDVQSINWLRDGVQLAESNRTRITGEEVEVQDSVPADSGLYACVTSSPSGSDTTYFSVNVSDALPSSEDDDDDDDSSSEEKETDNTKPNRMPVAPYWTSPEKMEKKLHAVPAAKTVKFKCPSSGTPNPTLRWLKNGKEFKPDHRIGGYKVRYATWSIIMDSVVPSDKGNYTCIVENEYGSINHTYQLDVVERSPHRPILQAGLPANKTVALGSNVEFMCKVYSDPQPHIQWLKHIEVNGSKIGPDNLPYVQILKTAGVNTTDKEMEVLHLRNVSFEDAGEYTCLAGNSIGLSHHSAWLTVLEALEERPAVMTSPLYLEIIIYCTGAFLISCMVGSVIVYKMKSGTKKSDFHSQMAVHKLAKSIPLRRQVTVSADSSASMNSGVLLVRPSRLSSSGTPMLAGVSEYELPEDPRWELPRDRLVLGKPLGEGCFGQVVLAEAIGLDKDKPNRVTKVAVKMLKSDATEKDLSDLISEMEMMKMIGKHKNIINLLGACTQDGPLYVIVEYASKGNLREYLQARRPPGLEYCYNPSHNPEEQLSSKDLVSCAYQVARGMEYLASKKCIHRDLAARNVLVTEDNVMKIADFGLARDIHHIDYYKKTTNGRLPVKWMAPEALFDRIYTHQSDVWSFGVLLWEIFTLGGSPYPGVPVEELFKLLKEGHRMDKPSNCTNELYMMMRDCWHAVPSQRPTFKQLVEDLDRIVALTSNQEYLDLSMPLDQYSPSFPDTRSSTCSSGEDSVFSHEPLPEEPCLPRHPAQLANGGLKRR
T1 sequence (Q13705 19-512): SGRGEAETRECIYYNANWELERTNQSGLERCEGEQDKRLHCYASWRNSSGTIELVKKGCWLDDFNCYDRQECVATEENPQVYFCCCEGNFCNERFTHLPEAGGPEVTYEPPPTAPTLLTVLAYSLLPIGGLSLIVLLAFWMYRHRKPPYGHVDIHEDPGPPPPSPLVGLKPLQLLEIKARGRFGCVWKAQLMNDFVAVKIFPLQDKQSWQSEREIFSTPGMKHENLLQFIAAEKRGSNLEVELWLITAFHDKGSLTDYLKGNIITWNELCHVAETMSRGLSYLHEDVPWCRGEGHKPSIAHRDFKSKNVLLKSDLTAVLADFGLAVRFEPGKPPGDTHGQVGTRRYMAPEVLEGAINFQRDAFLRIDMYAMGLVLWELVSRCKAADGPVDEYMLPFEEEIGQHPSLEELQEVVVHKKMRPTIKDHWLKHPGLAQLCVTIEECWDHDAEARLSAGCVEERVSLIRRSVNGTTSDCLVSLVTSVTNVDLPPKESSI
T10 sequence (Q13554 whole entry): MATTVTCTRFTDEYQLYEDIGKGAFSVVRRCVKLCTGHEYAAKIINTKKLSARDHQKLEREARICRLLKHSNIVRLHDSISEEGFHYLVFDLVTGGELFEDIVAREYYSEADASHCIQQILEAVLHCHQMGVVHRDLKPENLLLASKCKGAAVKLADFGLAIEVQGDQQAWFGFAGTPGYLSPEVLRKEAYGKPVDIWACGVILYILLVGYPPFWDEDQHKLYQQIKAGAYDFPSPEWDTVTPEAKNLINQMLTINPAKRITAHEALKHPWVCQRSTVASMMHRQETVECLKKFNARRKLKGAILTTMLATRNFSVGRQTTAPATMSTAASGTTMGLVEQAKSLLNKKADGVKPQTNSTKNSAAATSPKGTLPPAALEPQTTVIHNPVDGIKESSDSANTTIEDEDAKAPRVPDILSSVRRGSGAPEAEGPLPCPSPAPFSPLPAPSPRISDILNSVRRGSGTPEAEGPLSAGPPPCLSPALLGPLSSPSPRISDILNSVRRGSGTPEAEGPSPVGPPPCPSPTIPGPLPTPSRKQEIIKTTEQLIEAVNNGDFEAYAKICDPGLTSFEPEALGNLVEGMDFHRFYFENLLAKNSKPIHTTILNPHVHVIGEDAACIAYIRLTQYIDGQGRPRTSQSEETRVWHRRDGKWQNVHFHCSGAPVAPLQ
T3 sequence (P00533 with tags, fused parts or gaps A750P/DEL747-749 limits assumed): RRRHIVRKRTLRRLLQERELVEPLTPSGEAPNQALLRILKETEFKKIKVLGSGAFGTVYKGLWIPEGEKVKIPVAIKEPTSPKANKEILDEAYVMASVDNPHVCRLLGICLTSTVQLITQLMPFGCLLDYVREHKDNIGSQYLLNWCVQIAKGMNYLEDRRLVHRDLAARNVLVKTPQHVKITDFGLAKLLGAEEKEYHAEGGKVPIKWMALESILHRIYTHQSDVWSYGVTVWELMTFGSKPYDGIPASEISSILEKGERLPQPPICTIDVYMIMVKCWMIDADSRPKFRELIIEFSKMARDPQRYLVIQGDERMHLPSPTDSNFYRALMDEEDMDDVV

On to `Clc1cc(NCC2CC2)c2ncc(-c3ccc4[nH]ncc4c3)n2n1` [compound 2, 6-Chloro-N-(cyclopropylmethyl)-3-(1H-indazol-5-yl)imidazo[1,2-b]pyridazin-8-amine], for which the remaining binding at 1 µM was 100% in [1]; 10% in [2]; 87% in experiment [3]; 100% in experiment [4]; 91% in [5]; 72% in experiment [6]. Further, the remaining binding at 1 µM stood at 100% in experiment [7], 100% in experiment [8], 99% in [9] and 90% in experiment [10].

Turning to `O=C(CN1CCOCC1)N[C@H]1CC[C@H](Nc2cc(Cl)nn3c(-c4ccc5[nH]ncc5c4)cnc23)CC1` [compound 26], the remaining binding at 1 µM in [1] was 99%; in [2] it was 17%; in experiment [3], 83%; in [4] it was 100%; in [5], 80%; in experiment [6], 42%. Besides, the remaining binding at 1 µM turned out to be 98% in experiment [7], 97% in experiment [8], 94% in [9] and 69% in [10].

Turning to `CN1CCC(CNc2cc(Cl)nn3c(-c4cc5nc(Nc6ccccc6)[nH]c5cc4F)cnc23)CC1` [compound 31, 6-Chloro-3-(6-fluoro-2-(phenylamino)-1H-benzo[d]imidazol-5-yl)-N-((1-methylpiperidin-4-yl)methyl)imidazo[1,2-b]pyridazin-8-amine], the remaining binding at 1 µM is 100% in experiment [1]; 100% in [2]; 81% in experiment [3]; 92% in experiment [4]; 75% in experiment [5]; 40% in experiment [6]. Besides, the remaining binding at 1 µM in [7] is 80%; in experiment [8], 98%; in [9], 87%; in experiment [10], 100%.
